Patent US9867861B2, “Process for the large scale production of fruit cells and treatment of diseases with such cells” (priority 2012, dated 2018)

Legend:
[1] = Solubility assay of resveratrol sources in water; type: physicochemical; settings: acidified water (pH=2) as well as pH 7.0
[2] = system: carrageenan induced rat paw edema; settings: resveratrol 50 mg/kg body weight before carrageenan; Gentilli et al (2001); cited from earlier work
[3] = system: carrageenan induced rat paw edema; test: Carrageenan induced rat paw edema, paw volume measurements; type: in vivo; settings: indomethacin 2 mg/kg 2 h before carrageenan; vs vehicle control
Description: The aim of the present study was to evaluate the in vivo anti-inflammatory activity of RGC (Red Grape Cells) made according to the large scale process of the invention in an acute inflammation model in rats so as to verify the efficiency of the cells produced according to the invention. One of the experimental model most widely used to study acute inflammation in rodents is that based on the intraplantar administration of carrageenan. The study assessed the efficacy of the RGC by two methods: • 1. Paw volume measurements • 2. […] The rats in all groups were injected with 1% carrageenan (0.1 mg/paw) or sterile saline (0.9% NaCl) into the sub plantar tissue of left hind paw of each rat. • The Following Tests were Performed: • Paw Volumes Measurements • Carrageenan injected paw volumes were measured hourly just before carrageenan injection 0 and 1, 2, 4 hours after injection using caliper. • The paw dimensions were measured in two axes and paw volume was calculated. Paw edema volume in this model was an indication of the inflammation severity. • For each time point, the change in paw volume was calculated either by subtracting the baseline paw volume or as % of baseline paw volume. […]

[4] = system: carrageenan-induced hind paw inflammation (hyperalgesia); test: Hot plate method, inflammatory nociception in freely moving rats after carrageenan; type: in vivo, rat; settings: indomethacin 2 mg/kg, vs vehicle control
Protocol: The study assessed the efficacy of the RGC by two methods: • 1. Paw volume measurements • 2. Inflammatory nociception in freely moving rats Materials and Methods: Red Grape Cells (RGC) prepared according to example 1. • RGC was administered orally at dose of 400 mg/kg body weight (2 ml/40 mg) as a suspension in sterile drinking water, 2 h before carrageenan injection. • RGC Composition: […] Rats were divided into three groups of eight rats in each group. The rats in all groups were injected with 1% carrageenan (0.1 mg/paw) or sterile saline (0.9% NaCl) into the sub plantar tissue of left hind paw of each rat. • The Following Tests were Performed: • Paw Volumes Measurements • Carrageenan injected paw volumes were measured hourly just before carrageenan injection 0 and 1, 2, 4 hours after injection using caliper. • The paw dimensions were measured in two axes and paw volume was calculated. Paw edema volume in this model was an indication of the inflammation severity. • For each time point, the change in paw volume was calculated either by subtracting the baseline paw volume or as % of baseline paw volume. Hot Plate Method for Measuring Inflammatory Nociception in Freely Moving Rats The hot plate method was used to determine inflammatory nociception in freely moving rates. […]

Dissolution of RES in water, percentage compared to dissolution in 80% methanol [1] | SMILES | Paw edema [2] | Paw edema (volume %) [3] | Hot plate latency, % from baseline [4] | Hot plate latency delta, baseline-actual time ([4]; 2 and 4 h)
7% | Oc1ccc(/C=C/c2cc(O)cc(O)c2)cc1 [Synthetic-RES, trans-3,5,4′-trihydroxystilbene] | failed to reduce paw edema | – | – | –
– | COc1ccc2c(c1)c(CC(=O)O)c(C)n2C(=O)c1ccc(Cl)cc1 [indomethacin] | – | statistically significant difference at 2 and 4 h | statistically significant difference at 2 and 4 h | significant decrease in the latency delta
